{
  "source": "patent US8791079B2",
  "about": "“Methods for treating heart failure by inhibiting the mitochondrial sodium-calcium exchanger (mNCE)” (priority 2009, dated 2014)",
  "key": {"[1]": {"tested_on": "Guinea pig ventricular myocytes", "assay": "Mitochondrial NADH autofluorescence in isolated myocytes during 1-Hz stimulation", "format": "cell-based", "conditions": "1-μM ouabain + 100-nM isoproterenol, without (ouabain) or with 1 μM CGP-37157; for NADH level before stimulation: before 1-Hz stimulation; for NADH level by the end of stimulation: end of 1-Hz stimulation (three minutes)", "description": "(§1) Guinea pig ventricular myocytes were isolated by enzymatic digestion as described previously. O'Rourke, B., et al., “Oscillations of membrane current and excitability driven by metabolic oscillations in heart cells,” Science, 265(5174):962-966 (Aug. 12, 1994). Cells were suspended in Dulbecco's Modification of Eagle's Medium (DMEM) supplemented with 5% fetal bovine serum, 1% penicillin/streptomycin, and 15 mmol/L HEPES, pH 7.4, and stored in a 5% CO2 incubator at 37° C.\n(§2) Cytosolic Ca^2+ ([Ca^2+]c), mitochondrial Ca^2+ ([Ca^2+]m), and [Na^+]i were measured with the fluorescent indicators indo-1, rhod-2, and sodium-binding benzofuran isophthalate (SBFI), respectively (Invitrogen, Carlsbad, Calif.), and mitochondrial NADH was measured as the cellular autofluorescence with 360-nm excitation/450-nm emission. Indo-1 was loaded into cell with the membrane permeable form, indo-1 AM. To minimize indo-1 loading into the mitochondrial compartment, cells were briefly incubated with indo-1 AM at room temperature for 20 min. Rhod-2 and SBFI experiments were carried out as previously described. Maack et al., supra, Liu and O'Rourke, supra. Cytoplasmic rhod-2 was eliminated by using rhod-2-free patch pipettes. Maack et al., supra, Liu and O'Rourke, supra. The ROS-sensitive fluorescent probe 5-(−6)-chloromethyl-2′,7′-dichlorohydrofluorescein diacetate (CM-H2DCFDA) was used to monitor the extent of oxidative stress, as previously described. Aon, M. A., et al., “Synchronized whole cell oscillations in mitochondrial metabolism triggered by a local release of reactive oxygen species in cardiac myocytes,” J. Biol. Chem., 278(45):44735-44744 (Nov. 7, 2003). This probe is primarily localized in the mitochondrial matrix, see Aon et al., supra, and is oxidized by hydrogen peroxide to yield fluorescent CM-DCF, thus indirectly reporting mitochondrial superoxide production.\nIsolated ventricular myocytes were loaded into a heated field-stimulation chamber (Warner Instruments, Hamden, Conn.) at 37° C. on the stage of a fluorescence microscope (Nikon Eclipse TE300, Nikon Instruments, Inc., Melville, N.Y.). The myocytes were first superfused with control Tyrode's solution containing: NaCl (130 mmol/L), KCl (5 mmol/L), MgCl2 (1 mmol/L), Na-HEPES (10 mmol/L), CaCl2 (2 mmol/L), glucose (10 mmol/L), at pH 7.4. After one minute of recording in the absence of electrical stimulation in control buffer, 1-μM ouabain and 100-nM isoproterenol, with or without 1 μM CGP-37157, were added to buffer. After another five minutes of recording, myocytes were field-stimulated at 1 Hz for three minutes followed by a two-minute recording after returning to the resting state. To record [Ca^2+]m and action potentials, myocytes were whole-cell patch-clamped at 37° C. […]"}, "[2]": {"tested_on": "Guinea pig ventricular myocytes", "assay": "Mitochondrial Ca2+ ([Ca2+]m, rhod-2) in patch-clamped myocytes", "format": "cell-based", "description": "as §1\nCytosolic Ca^2+ ([Ca^2+]c), mitochondrial Ca^2+ ([Ca^2+]m), and [Na^+]i were measured with the fluorescent indicators indo-1, rhod-2, and sodium-binding benzofuran isophthalate (SBFI), respectively (Invitrogen, Carlsbad, Calif.), and mitochondrial NADH was measured as the cellular autofluorescence with 360-nm excitation/450-nm emission. Indo-1 was loaded into cell with the membrane permeable form, indo-1 AM. To minimize indo-1 loading into the mitochondrial compartment, cells were briefly incubated with indo-1 AM at room temperature for 20 min. Rhod-2 and SBFI experiments were carried out as previously described. Maack et al., supra, Liu and O'Rourke, supra. […]\nIsolated ventricular myocytes were loaded into a heated field-stimulation chamber (Warner Instruments, Hamden, Conn.) at 37° C. on the stage of a fluorescence microscope (Nikon Eclipse TE300, Nikon Instruments, Inc., Melville, N.Y.). […]"}, "[3]": {"tested_on": "Guinea pig ventricular myocytes", "assay": "Cytosolic Ca2+ ([Ca2+]c, indo-1) cycling in isolated myocytes", "format": "cell-based", "conditions": "ouabain without or with CGP-37157; for diastolic [Ca2+]c before stimulation / diastolic [Ca2+]c after three minutes of stimulation / increase of amplitude of [Ca2+]c transient (Δ[Ca2+]c) compared to control: 100-nM isoproterenol; for diastolic [Ca2+]c before stimulation: before 1-Hz stimulation; for diastolic [Ca2+]c after three minutes of stimulation: end of 1-Hz stimulation; for increase of amplitude of [Ca2+]c transient (Δ[Ca2+]c) compared to control: midpoint of 1-Hz stimulation, control = isoproterenol only; for spontaneous Ca2+ oscillations / discordant contractions: prolonged stimulation", "description": "as §1, §2\nIsolated ventricular myocytes were loaded into a heated field-stimulation chamber (Warner Instruments, Hamden, Conn.) at 37° C. on the stage of a fluorescence microscope (Nikon Eclipse TE300, Nikon Instruments, Inc., Melville, N.Y.). The myocytes were first superfused with control Tyrode's solution containing: NaCl (130 mmol/L), KCl (5 mmol/L), MgCl2 (1 mmol/L), Na-HEPES (10 mmol/L), CaCl2 (2 mmol/L), glucose (10 mmol/L), at pH 7.4. After one minute of recording in the absence of electrical stimulation in control buffer, 1-μM ouabain and 100-nM isoproterenol, with or without 1 μM CGP-37157, were added to buffer. After another five minutes of recording, myocytes were field-stimulated at 1 Hz for three minutes followed by a two-minute recording after returning to the resting state. To record [Ca^2+]m and action potentials, myocytes were whole-cell patch-clamped at 37° C. Tyrode's solution was used as external solution and the internal solution contained: NaCl (10 mmol/L), KCl (19 mmol/L), K-glutamate (125 mmol/L), MgCl2 (0.5 mmol/L), HEPES (10 mmol/L), MgATP (5 mmol/L), at pH 7.25."}, "Guinea pig hearts": {"tested_on": "Guinea pig hearts", "assay": "Oxygen consumption in isolated perfused hearts", "from_the_text": "Guinea pig hearts were quickly excised under anesthesia and mounted on a modified Langendorff apparatus attached to a Powerlab system (AD Instruments, Colorado Springs, Colo.). Hearts were perfused with gassed (95/5% O2/CO2) control buffer containing: 118-mM NaCl, 24-mM NaHCO3, 1.2-mM KH2PO4, 4.75-mM KCl, 1.2-mM MgSO4, 2.0-mM CaCl2, and 10-mM glucose. A buffer-filled latex balloon (Harvard apparatus) was inserted through the mitral valve into the left ventricle. Hearts were suspended in a buffer-filled heating chamber maintained at 37° C. and two electrodes were placed into the bath for volume-conducted electrocardiogram recordings. Heart rate, left ventricular developed pressure (LVDP), maximal rates of contraction and relaxation (±dP/dt), oxygen consumption, and electrocardiograms (ECG) were recorded on a computer. After a ten-minute equilibration period, hearts were subjected to the following protocol: ten-minute baseline recording while the heart was perfused with control buffer, ten-minute recording while 0.25-μM ouabain with or without 1 μM CGP-37157, and sixty-minute recording while hearts were stimulated with 25-nM isoproterenol. The measurements of hemodynamic parameters were determined by taking the average during the last two minutes before ouabain treatment (baseline) and for two minutes during the maximal effect on LVDP of either ouabain or isoproterenol.\nCardiac O2 concentration was measured with an O2 probe attached to a PowerLab system (AD Instruments). The probe was calibrated with 95% O2-saturated buffer as 100% and 100% N2-saturated buffer as 0%. The molar concentration of O2 consumption was calculated from percentage concentration with the following equation: VO2(μmol/min/g dwt)=CF×(0.02373/22.414)×((760−p)/760)×(ΔO2%/100)/dwt\nwhere CF is coronary flow (mL/min); 0.02373 is the absorption coefficient of O2 in H2O at 37° C.; 22.414 is the volume (L) of 1 mol gas at STP; 760 is 1 atm in mm Hg; p equals 47.067, which is the vapor pressure of H2O at 37° C.; ΔO2% is the difference in O2 percentage concentration between inflow buffer collected from cannula before heart was mounted and outflow buffer collected from pulmonary artery; dwt is dry heart weight."}, "[4]": {"conditions": "after ten minutes treatment of ouabain, without or with CGP-37157"}},
  "data": [
    {"smiles": "O=C1CSC(c2ccccc2Cl)c2cc(Cl)ccc2N1", "note": "(centres unmarked) [CGP-37157, 7-chloro-5-(2-chlorophenyl)-1,5-dihydro-4,1-benzothiazepin-2(3H)-one]", "values": [
      {"measurement": "NADH level before stimulation", "setting": "[1]", "result": "78.3±3.2", "unit": "%"},
      {"measurement": "NADH level by the end of stimulation", "setting": "[1]", "result": "80.6±2.5", "unit": "%"},
      {"measurement": "[Ca2+]m accumulation", "setting": "[2]; 1 μM CGP-37157 with 1-μM ouabain + 100-nM isoproterenol, 1-Hz stimulation", "result": "significantly enhanced [Ca^2+]m accumulation"},
      {"measurement": "diastolic [Ca2+]c before stimulation", "setting": "[3]", "result": "99 ± 14", "unit": "nM"},
      {"measurement": "diastolic [Ca2+]c after three minutes of stimulation", "setting": "[3]", "result": "370 ± 60", "unit": "nM"},
      {"measurement": "increase of amplitude of [Ca2+]c transient (Δ[Ca2+]c) compared to control", "setting": "[3]", "result": 74, "unit": "%"},
      {"measurement": "spontaneous Ca2+ oscillations / discordant contractions", "setting": "[3]", "result": "significantly reduced the incidence of discordant contractions"},
      {"measurement": "increase of whole-heart oxygen consumption (VO2) compared to baseline", "setting": "Guinea pig hearts; [4]", "result": 32, "unit": "%"},
      {"measurement": "increase of whole-heart oxygen consumption (VO2) compared to baseline", "setting": "Guinea pig hearts; ouabain followed by isoproterenol, without (isoproterenol) or with CGP-37157", "result": 53, "unit": "%"}
    ]},
    {"smiles": "C[C@@H]1O[C@@H](O[C@H]2C[C@@H](O)[C@]3(CO)[C@H]4[C@H](O)C[C@]5(C)[C@@H](C6=CC(=O)OC6)CC[C@]5(O)[C@@H]4CC[C@]3(O)C2)[C@H](O)[C@H](O)[C@H]1O", "note": "[ouabain, 1β,3β,5β,11α,14,19-Hexahydroxycard-20(22)-enolide 3-(6-deoxy-α-L-mannopyranoside, reference compound]", "values": [
      {"measurement": "NADH level before stimulation", "setting": "[1]", "result": "81.7±1.8", "unit": "%"},
      {"measurement": "NADH level by the end of stimulation", "setting": "[1]", "result": "52.3±5.7", "unit": "%"},
      {"measurement": "increase of diastolic [Ca2+]m during 1-Hz stimulation", "setting": "[2]; 1-μM ouabain + 100-nM isoproterenol", "result": "< 10", "unit": "%"},
      {"measurement": "diastolic [Ca2+]c before stimulation", "setting": "[3]", "result": "123 ± 9", "unit": "nM"},
      {"measurement": "diastolic [Ca2+]c after three minutes of stimulation", "setting": "[3]", "result": "750 ± 142", "unit": "nM"},
      {"measurement": "increase of amplitude of [Ca2+]c transient (Δ[Ca2+]c) compared to control", "setting": "[3]", "result": 112, "unit": "%"},
      {"measurement": "spontaneous Ca2+ oscillations / discordant contractions", "setting": "[3]", "result": "developed spontaneous Ca^2+ oscillations, extrasystolic contractions, and eventual hypercontracture"},
      {"measurement": "increase of whole-heart oxygen consumption (VO2) compared to baseline", "setting": "Guinea pig hearts; [4]", "result": 18, "unit": "%"}
    ]}
  ]
}
